Reference: PubChem BioAssay (NCI)
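48-hour exposure; five concentrations; linearly interpolated endpoints. TGI denotes the concentration required for complete inhibition of growth.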

Key:
Experiment in all cases: NCI-60 cell line screen, 48 h
786-0 renal = test system: 786-0 renal
A498 renal = test system: A498 renal
A549 NSCLC = test system: A549 NSCLC
ACHN renal = test system: ACHN renal
BT-549 breast = test system: BT-549 breast
CAKI-1 renal = test system: CAKI-1 renal
CCRF-CEM leukemia = test system: CCRF-CEM leukemia
COLO 205 colon = test system: COLO 205 colon
DU-145 prostate = test system: DU-145 prostate
EKVX NSCLC = test system: EKVX NSCLC
HCC-2998 colon = test system: HCC-2998 colon
HCT-116 colon = test system: HCT-116 colon
HCT-15 colon = test system: HCT-15 colon
HL-60(TB) leukemia = test system: HL-60(TB) leukemia
HOP-62 NSCLC = test system: HOP-62 NSCLC
HOP-92 NSCLC = test system: HOP-92 NSCLC
HS 578T breast = test system: HS 578T breast
HT29 colon = test system: HT29 colon
IGROV1 ovarian = test system: IGROV1 ovarian
KM12 colon = test system: KM12 colon
LOX IMVI melanoma = test system: LOX IMVI melanoma
M14 melanoma = test system: M14 melanoma
MALME-3M melanoma = test system: MALME-3M melanoma
MCF7 breast = test system: MCF7 breast
MDA-MB-231 breast = test system: MDA-MB-231 breast
MDA-MB-435 = test system: MDA-MB-435
MDA-N = test system: MDA-N
NCI-H226 lung = test system: NCI-H226 lung
NCI-H23 lung = test system: NCI-H23 lung
NCI-H460 lung = test system: NCI-H460 lung
NCI-H522 lung = test system: NCI-H522 lung
NCI/ADR-RES ovarian = test system: NCI/ADR-RES ovarian
OVCAR-3 ovarian = test system: OVCAR-3 ovarian
OVCAR-4 ovarian = test system: OVCAR-4 ovarian
OVCAR-5 ovarian = test system: OVCAR-5 ovarian
OVCAR-8 ovarian = test system: OVCAR-8 ovarian
PC-3 prostate = test system: PC-3 prostate
RPMI-8226 leukemia = test system: RPMI-8226 leukemia
RXF 393 renal = test system: RXF 393 renal
SF-268 CNS = test system: SF-268 CNS
SF-295 CNS = test system: SF-295 CNS
SF-539 CNS = test system: SF-539 CNS
SK-MEL-2 melanoma = test system: SK-MEL-2 melanoma
SK-MEL-28 melanoma = test system: SK-MEL-28 melanoma
SK-MEL-5 melanoma = test system: SK-MEL-5 melanoma
SK-OV-3 ovarian = test system: SK-OV-3 ovarian
SN12C renal = test system: SN12C renal
SNB-19 CNS = test system: SNB-19 CNS
SNB-75 CNS = test system: SNB-75 CNS
SR leukemia = test system: SR leukemia
SW-620 colon = test system: SW-620 colon
T-47D breast = test system: T-47D breast
TK-10 renal = test system: TK-10 renal
U251 CNS = test system: U251 CNS
UACC-257 melanoma = test system: UACC-257 melanoma
UO-31 renal = test system: UO-31 renal
K-562 leukemia = test system: K-562 leukemia
UACC-62 melanoma = test system: UACC-62 melanoma

## CC(=N\N)/C(C)=N/N=C(C)/C(C)=N/N
786-0 renal
  TGI: > 100 µM
A498 renal
  TGI: > 100 µM
A549 NSCLC
  TGI: > 100 µM
ACHN renal
  TGI: > 100 µM
BT-549 breast
  TGI: > 100 µM
CAKI-1 renal
  TGI: > 100 µM
CCRF-CEM leukemia
  TGI: > 100 µM
COLO 205 colon
  TGI: > 100 µM
DU-145 prostate
  TGI: > 100 µM
EKVX NSCLC
  TGI: > 100 µM
HCC-2998 colon
  TGI: > 100 µM
HCT-116 colon
  TGI: > 100 µM
HCT-15 colon
  TGI: > 100 µM
HL-60(TB) leukemia
  TGI: > 100 µM
HOP-62 NSCLC
  TGI: > 100 µM
HOP-92 NSCLC
  TGI: > 100 µM
HS 578T breast
  TGI: > 100 µM
HT29 colon
  TGI: > 100 µM
IGROV1 ovarian
  TGI: > 100 µM
KM12 colon
  TGI: > 100 µM
LOX IMVI melanoma
  TGI: > 100 µM
M14 melanoma
  TGI: > 100 µM
MALME-3M melanoma
  TGI: > 100 µM
MCF7 breast
  TGI: > 100 µM
MDA-MB-231 breast
  TGI: > 100 µM
MDA-MB-435
  TGI: > 100 µM
MDA-N
  TGI: > 100 µM
NCI-H226 lung
  TGI: > 100 µM
NCI-H23 lung
  TGI: > 100 µM
NCI-H460 lung
  TGI: > 100 µM
NCI-H522 lung
  TGI: > 100 µM
NCI/ADR-RES ovarian
  TGI: > 100 µM
OVCAR-3 ovarian
  TGI: > 100 µM
OVCAR-4 ovarian
  TGI: > 100 µM
OVCAR-5 ovarian
  TGI: > 100 µM
OVCAR-8 ovarian
  TGI: > 100 µM
PC-3 prostate
  TGI: > 100 µM
RPMI-8226 leukemia
  TGI: > 100 µM
RXF 393 renal
  TGI: > 100 µM
SF-268 CNS
  TGI: > 100 µM
SF-295 CNS
  TGI: > 100 µM
SF-539 CNS
  TGI: > 100 µM
SK-MEL-2 melanoma
  TGI: > 100 µM
SK-MEL-28 melanoma
  TGI: > 100 µM
SK-MEL-5 melanoma
  TGI: > 100 µM
SK-OV-3 ovarian
  TGI: > 100 µM
SN12C renal
  TGI: > 100 µM
SNB-19 CNS
  TGI: > 100 µM
SNB-75 CNS
  TGI: > 100 µM
SR leukemia
  TGI: > 100 µM
SW-620 colon
  TGI: > 100 µM
T-47D breast
  TGI: > 100 µM
TK-10 renal
  TGI: > 100 µM
U251 CNS
  TGI: > 100 µM
UACC-257 melanoma
  TGI: > 100 µM
UO-31 renal
  TGI: > 100 µM

## C=CCC1CC(n2cc(C)c(=O)[nH]c2=O)OC1CO[Si](C)(C)C(C)(C)C (stereo not drawn)
786-0 renal
  TGI: 28.8 µM
A498 renal
  TGI: 34.5 µM
A549 NSCLC
  TGI: 26.8 µM
ACHN renal
  TGI: 29.8 µM
BT-549 breast
  TGI: 29.6 µM
CAKI-1 renal
  TGI: 31.8 µM
CCRF-CEM leukemia
  TGI: 29.9 µM
COLO 205 colon
  TGI: 27 µM
DU-145 prostate
  TGI: 31.1 µM
EKVX NSCLC
  TGI: 19.8 µM
HCC-2998 colon
  TGI: 35.5 µM
HCT-116 colon
  TGI: 24.6 µM
HCT-15 colon
  TGI: 29.1 µM
HOP-62 NSCLC
  TGI: 34.7 µM
HOP-92 NSCLC
  TGI: 31 µM
HS 578T breast
  TGI: 29.4 µM
HT29 colon
  TGI: 30.9 µM
IGROV1 ovarian
  TGI: 23.4 µM
K-562 leukemia
  TGI: 24.3 µM
KM12 colon
  TGI: 35 µM
LOX IMVI melanoma
  TGI: 26.2 µM
M14 melanoma
  TGI: 33.5 µM
MALME-3M melanoma
  TGI: 23.2 µM
MCF7 breast
  TGI: 29.1 µM
MDA-MB-231 breast
  TGI: 28.9 µM
MDA-MB-435
  TGI: 28.2 µM
MDA-N
  TGI: 27.4 µM
NCI-H226 lung
  TGI: 28.4 µM
NCI-H23 lung
  TGI: 27.1 µM
NCI-H460 lung
  TGI: 38.9 µM
NCI-H522 lung
  TGI: 23.1 µM
NCI/ADR-RES ovarian
  TGI: 31.5 µM
OVCAR-3 ovarian
  TGI: 31 µM
OVCAR-4 ovarian
  TGI: 28.5 µM
OVCAR-5 ovarian
  TGI: 31.7 µM
OVCAR-8 ovarian
  TGI: 28.5 µM
PC-3 prostate
  TGI: 25.1 µM
RPMI-8226 leukemia
  TGI: 47.5 µM
RXF 393 renal
  TGI: 15.9 µM
SF-268 CNS
  TGI: 30.9 µM
SF-295 CNS
  TGI: 40 µM
SF-539 CNS
  TGI: 28.3 µM
SK-MEL-2 melanoma
  TGI: 32.8 µM
SK-MEL-28 melanoma
  TGI: 30.4 µM
SK-MEL-5 melanoma
  TGI: 29.9 µM
SK-OV-3 ovarian
  TGI: 29.2 µM
SN12C renal
  TGI: 29.1 µM
SNB-19 CNS
  TGI: 30.2 µM
SNB-75 CNS
  TGI: 25.4 µM
SR leukemia
  TGI: 11.5 µM
SW-620 colon
  TGI: 31.9 µM
T-47D breast
  TGI: 26.8 µM
TK-10 renal
  TGI: 30.1 µM
U251 CNS
  TGI: 29.6 µM
UACC-257 melanoma
  TGI: 33.8 µM
UACC-62 melanoma
  TGI: 31.7 µM
UO-31 renal
  TGI: 24.9 µM
